From US20130143866A1, “ANTICANCER COMBINATION TREATMENTS” (priority 2011, published 2013)

How the values were obtained:
+SA mammary tumor cells = assay: HGF-dependent +SA mammary tumor cell growth, viable cell number by MTT colorimetric assay; type: cell-based, mice; conditions: for HGF-dependent +SA cell growth: vs vehicle-treated control; for +SA tumor cell growth: summary statement, HGF-dependent, in a dose-responsive manner
Description: +SA mammary tumor cells were used for the examples presented herein. […] In addition, +SA cells can form adenocarcinomas that metastasize to the lungs when injected into the mammary gland fat pad of syngeneic female mice. +SA cells were maintained in serum-free defined media containing 10 ng/mL Hepatocyte growth factor (HGF) as the mitogen, Dulbecco's Modified Eagle's Medium (DMEM)/F12 supplemented with 5 mg/mL bovine serum albumin (BSA), 10 μg/mL transferrin, 100 U/mL soybean trypsin inhibitor, 100 U/mL penicillin, 0.1 mg/mL streptomycin and 10 μg/mL insulin at 37° C. in an environment of 95% air and 5% CO2 in humidified incubator. For subculturing, cells were rinsed with sterile Ca^2+ and Mg^2+-free phosphate buffered saline (PBS) and incubated with 0.05% trypsin containing 0.025% EDTA in PBS for 5 min at 37° C. The released cells were centrifuged, resuspended in serum-free media and counted using hemocytometer.
γ-tocotrienol was prepared for the tests of this example by suspending it in a solution of sterile 10% BSA. An appropriate amount of γ-tocotrienol was dissolved in 100 μL of absolute ethyl alcohol and then added to a small volume of sterile 10% BSA in water and incubated overnight at 37° C. This stock solution was used to prepare various concentrations of the treatment media. Ethanol was added to all treatment groups in a given experiment such that the final concentration of ethanol never exceeded 0.1%. Stock solution of the Met inhibitor, SU11274 was prepared in DMSO and DMSO was added to all treatment media such that the final concentration was same in all treatment groups and never exceeded a concentration of 0.1%.
+SA cells were initially seeded at a density of 5×10^4 cells/well (6 replicates/group) in 24-well plates in serum-free defined media containing 10 ng/mL HGF as mitogen and allowed to attach overnight. For growth studies, +SA cells were maintained in serum-free defined media containing various doses of HGF over a 3-day culture period. In the antiproliferative experiments, cells were exposed to respective experimental treatments containing various concentrations of SU11274 or γ-tocotrienol alone or in combination for three days. On the fourth day, cells were divided into different treatment groups and treated with various concentrations of SU11274 or γ-tocotrienol alone or in combination for 24 hours. At the end of the treatment exposure period, the viable +SA cell number was determined by 3-(4,5-dimethylthiazol-2yl)-2,5-diphenyl tetrazolium bromide (MTT) colorimetric assay. Control and treatment media in various treatment groups in 24-well plates were replaced with fresh media containing 0.41 mg/ml MTT. After 4-h incubation period, the media was removed and MTT crystals were dissolved in isopropanol (1 ml/well), and the optical density of each sample was measured at 570 nm on a microplate reader (SpectraCount, Packard BioScience Company). The number of cells/well was calculated against a standard curve prepared by plating various concentrations of cells, as determined by hemocytometer, at the beginning of each experiment.
Vertical bars indicate mean viable cell number±SEM for six replicates in each treatment group. Differences among various treatment groups in +SA cell growth studies were determined by the analysis of variance (ANOVA) followed by Dunnett's t test. A difference of P<0.05 was considered statistically significant as compared to the vehicle-treated control.
Effects of various doses of SU11274, a specific Met Receptor Tyrosine Kinase inhibitor, or γ-tocotrienol on HGF-dependent +SA mammary tumor cell growth after a 3-day culture period are shown in FIG. 2. […] In the present example, +SA cells were initially plated at a density of 5×10^4 cells/well (6 replicates/group) in 24-well plates and exposed to various doses of SU11274 or γ-tocotrienol in the presence of 10 ng/mL HGF throughout a 3-day culture period. Viable cell number was determined using the MTT colorimetric assay. […]

Met = biological target: T1, Met (Mus musculus, UniProt P16056); assay: Western blot analysis of total and phosphorylated (active) Met levels in HGF-stimulated +SA cells; type: cell-based, mice; conditions: for HGF-dependent Met tyrosine phosphorylation: summary statement, in a dose-responsive manner
T1 construct: whole cell lysates were prepared and then subjected to polyacrylamide gel electrophoresis and Western blot analysis for total and phosphorylated Met levels; endogenous in cells; host or cells: +SA mammary tumor cells
Description: For Western blot analysis, +SA cells were initially plated at a density of 1×10^6 cells/100-mm culture dish, allowed to attach overnight and then incubated in the respective control or treatment media. At the end of treatment period, cells were isolated with trypsin, washed with PBS, and then whole cell lysates were prepared in a Laemmle buffer. Protein concentration in each sample was determined using a protein assay kit (Bio-Rad protein assay kit, Bio Rad, Hercules, Calif., USA). Equal amount of protein (30-50 μg/lane) of each sample was subjected to electrophoresis through 7.5%-15% SDS-polyacrylamide minigels. Minigels within a given treatment were run simultaneously using AccuPower model 500 power supply unit (VWR, Suwanee, Ga., USA). Each gel was then equilibrated in transfer buffer and transblotted at 30 V for 12-16 hours at 4° C. onto a polyvinylidene fluoride (PVDF) membrane (PerkinElmer Lifesciences, Wellesley, Mass., USA) in a Trans-Blot Cell (Bio-Rad Laboratories, Hercules, Calif.) according to the method of Towbin. These PVDF membranes were then blocked with 2% BSA in 10 mM Tris-HCl containing 50 mM NaCl and 0.1% Tween 20, pH 7.4 (TBST) and then, incubated with specific primary antibodies against Met, phospho-Met, cleaved caspase-3, cleaved PARP, and α-tubulin diluted 1:1000 to 1:5000 in 2% BSA in TBST for 2 hours at room temperature or overnight at 4° C. Membranes were then washed 5 times with TBST and incubated with respective horseradish […]-conjugated secondary antibody diluted 1:3000 to 1:5000 in 2% BSA in TBST for 1 hour at room temperature followed by rinsing with TBST for 5 times. Blots were then visualized by chemiluminescence. (Pierce, Rockford, Ill., USA). Images of protein bands from all treatment groups within a given experiment were acquired using Kodak Gel Logic 1500 Imaging System (Carestream Health Inc, New Haven, Conn., USA). The visualization of α-tubulin was used to ensure equal sample loading in each lane.
+SA cells were plated at a density of 1×10^6 cells/100 mm culture dish. Cells were then incubated with serum-free media containing vehicle (control), 5.5 μM SU11274 or 4 μM γ-tocotrienol and 10 ng/mL HGF as the mitogen for a 3-day culture period. Following treatment exposure, cells were incubated in mitogen-free media overnight. Afterwards, cells were stimulated with 100 ng/mL HGF for 30 min Cells incubated in mitogen-free media were used as untreated controls. Following mitogen exposure, whole cell lysates were prepared and then subjected to polyacrylamide gel electrophoresis and Western blot analysis for total and phosphorylated Met levels. α-Tubulin was visualized to ensure equal sample loading in each lane. Each Western blot is a representative image of the data obtained for experiments that were repeated at least three times.
The +SA cells were plated at a density of 1×10^6 cells/100 mm culture dish. Cells were then incubated with serum-free media containing vehicle (control) or 4 μM γ-tocotrienol, and 10 ng/mL HGF as a mitogen. Cells were collected at various times during the next 72-h period. Following treatment exposure at each time point, cells were incubated in mitogen-free media overnight. Afterwards, cells were stimulated with 100 ng/mL HGF for 30 min Cells incubated with mitogen-free media were used as untreated controls. Following mitogen exposure, whole cell lysates were prepared and then subjected to polyacrylamide gel electrophoresis and Western blot analysis for total and phosphorylated (active) Met receptor levels. α-Tubulin was visualized to ensure equal sample loading in each lane. Western blots presented in FIG. 4 are representative of the data obtained for experiments that were repeated at least three times.
Cells were then incubated with serum-free media containing vehicle (control), 3 μM SU11274, 2 μM γ-tocotrienol or the combination of 3 μM SU11274 and 2 μM γ-tocotrienol, and 10 ng/mL HGF as a mitogen for a 3-day culture period. […]

[1] = 5.5 μM SU11274, 3-day culture, then 100 ng/mL HGF for 30 min, vs vehicle-treated control
[2] = 4 μM γ-tocotrienol, 10 ng/mL HGF, time course over 72 h, vs vehicle-treated control

T1 sequence (P16056 25-1379): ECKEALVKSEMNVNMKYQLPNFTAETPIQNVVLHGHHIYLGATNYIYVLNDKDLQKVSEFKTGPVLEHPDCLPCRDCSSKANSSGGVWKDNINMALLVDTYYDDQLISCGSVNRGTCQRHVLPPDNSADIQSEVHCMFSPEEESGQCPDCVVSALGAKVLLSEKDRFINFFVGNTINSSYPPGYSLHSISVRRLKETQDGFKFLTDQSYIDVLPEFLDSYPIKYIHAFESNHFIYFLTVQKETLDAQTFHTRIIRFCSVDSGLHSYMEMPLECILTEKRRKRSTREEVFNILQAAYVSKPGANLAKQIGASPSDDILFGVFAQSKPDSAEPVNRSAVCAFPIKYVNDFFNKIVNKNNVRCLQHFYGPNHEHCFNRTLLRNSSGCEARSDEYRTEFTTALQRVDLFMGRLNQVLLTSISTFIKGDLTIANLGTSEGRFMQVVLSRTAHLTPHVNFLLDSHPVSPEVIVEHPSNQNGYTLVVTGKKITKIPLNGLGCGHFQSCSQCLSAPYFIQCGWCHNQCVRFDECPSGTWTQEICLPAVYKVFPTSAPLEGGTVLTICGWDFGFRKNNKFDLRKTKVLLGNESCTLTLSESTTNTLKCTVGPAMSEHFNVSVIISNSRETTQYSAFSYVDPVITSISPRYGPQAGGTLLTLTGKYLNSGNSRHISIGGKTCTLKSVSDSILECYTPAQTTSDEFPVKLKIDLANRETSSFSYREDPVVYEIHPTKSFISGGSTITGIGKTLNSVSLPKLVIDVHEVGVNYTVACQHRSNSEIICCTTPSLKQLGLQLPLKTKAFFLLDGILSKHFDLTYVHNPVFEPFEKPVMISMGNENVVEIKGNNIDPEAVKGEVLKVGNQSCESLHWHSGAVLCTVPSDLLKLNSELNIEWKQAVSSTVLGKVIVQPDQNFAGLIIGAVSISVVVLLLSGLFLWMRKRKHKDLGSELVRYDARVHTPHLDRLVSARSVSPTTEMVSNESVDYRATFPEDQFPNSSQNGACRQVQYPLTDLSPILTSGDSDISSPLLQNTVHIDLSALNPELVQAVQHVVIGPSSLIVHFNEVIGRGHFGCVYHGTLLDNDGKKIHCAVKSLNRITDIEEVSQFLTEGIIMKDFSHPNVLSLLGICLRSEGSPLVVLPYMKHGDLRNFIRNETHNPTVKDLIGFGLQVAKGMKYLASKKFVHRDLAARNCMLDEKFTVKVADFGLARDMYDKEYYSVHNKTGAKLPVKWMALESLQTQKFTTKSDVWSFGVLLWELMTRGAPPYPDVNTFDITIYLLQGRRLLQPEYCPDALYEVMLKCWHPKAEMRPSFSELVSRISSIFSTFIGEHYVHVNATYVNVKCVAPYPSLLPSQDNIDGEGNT

Compound	growth of neoplastic +SA mammary epithelial cells (viable cell number) (+SA mammary tumor cells; stimulation with 1-10 ng/mL HGF, 3-day culture, dose-responsive, vs mitogen-free control media, P<0.05)	HGF-dependent +SA cell growth (+SA mammary tumor cells; 4.5-5.5 μM SU11274, 10 ng/mL HGF, 3-day culture, P<0.05)	HGF-dependent +SA cell growth (+SA mammary tumor cells; subeffective dose 3 μM SU11274 alone, 10 ng/mL HGF, 3-day culture)	+SA tumor cell growth (+SA mammary tumor cells)	HGF-dependent Met tyrosine phosphorylation (activation) (Met; [1])	total intracellular levels of Met receptors (Met; [1])	HGF-dependent Met tyrosine phosphorylation (Met)	HGF-dependent +SA cell growth (+SA mammary tumor cells; 4 μM γ-tocotrienol, 10 ng/mL HGF, 3-day culture, P<0.05)	HGF-dependent +SA cell growth (+SA mammary tumor cells; subeffective dose 2 μM γ-tocotrienol alone, 10 ng/mL HGF, 3-day culture)	culture exposure time at which reduction in total levels of Met protein was maximal (Met; [2])	treatment exposure time at which reduction in total levels of Met protein started (Met; [2])	level of total Met protein (Met; 4 μM γ-tocotrienol, 3-day culture, then 100 ng/mL HGF for 30 min)	HGF-induced Met phosphorylation (Met; 4 μM γ-tocotrienol, 3-day culture, then 100 ng/mL HGF for 30 min, mirrors loss of Met expression)
HGF: Hepatocyte growth factor (HGF), the mitogen, purchased from PeproTech Inc.	significantly increased												
Cc1[nH]c(/C=C2\C(=O)Nc3ccc(S(=O)(=O)N(C)c4cccc(Cl)c4)cc32)c(C)c1C(=O)N1CCN(C)CC1 [SU11274, reference compound]		significantly inhibited	no effect	inhibited	large relative reduction	no effect	inhibited						
CC(C)=CCC/C(C)=C/CC/C(C)=C/CC[C@]1(C)CCc2cc(O)c(C)c(C)c2O1 [γ-tocotrienol]				inhibited			inhibited	significantly inhibited	no effect	3 days	24 h	significant reduction	loss
